Assay results: ChEMBL document CHEMBL4265983, “Discovery and biological evaluation of thiobarbituric derivatives as potent p300/CBP inhibitors” (Bioorg Med Chem, 2018)
Calls of active or inactive are those of the source. No cut-off for these calls is given here.

Legend:
[1] = target: Histone acetyltransferase p300 (Homo sapiens, UniProt Q09472); assay: Inhibition of p300 (unknown origin) using human histone as substrate measured after 60 mins in presence of [3H]-acetyl-CoA by microbeta counting method
[2] = target: CREB-binding protein (Homo sapiens, UniProt Q92793); assay: Inhibition of CBP (unknown origin) in presence of [3H]-acetyl-CoA
[3] = test system: CCRF-CEM; assay: Antiproliferative activity against human CEM cells after 72 hrs by CellTiter-Glo assay
[4] = test system: MOLT-3; assay: Antiproliferative activity against human MOLT3 cells after 72 hrs by CellTiter-Glo assay; conditions: MOLT-3, 72 h
[5] = test system: Jurkat; assay: Antiproliferative activity against human Jurkat cells after 72 hrs by CellTiter-Glo assay
[6] = test system: MOLT-4; assay: Antiproliferative activity against human MOLT4 cells after 72 hrs by CellTiter-Glo assay; conditions: MOLT-4, 72 h
[7] = test system: Kasumi 1; assay: Antiproliferative activity against human Kasumi-1 cells after 72 hrs by CellTiter-Glo assay; conditions: Kasumi 1, 72 h
[8] = test system: MV4-11; assay: Antiproliferative activity against human MV4-11 cells after 72 hrs by CellTiter-Glo assay; conditions: MV4-11, 72 h
[9] = test system: THP-1; assay: Antiproliferative activity against human THP1 cells after 72 hrs by CellTiter-Glo assay; conditions: THP-1, 72 h
[10] = test system: RS4-11; assay: Antiproliferative activity against human RS4:11 cells after 72 hrs by CellTiter-Glo assay; conditions: RS4-11, 72 h
[11] = test system: KOPN-8; assay: Antiproliferative activity against human KOPN8 cells after 72 hrs by CellTiter-Glo assay; conditions: KOPN-8, 72 h
[12] = test system: K562; assay: Antiproliferative activity against human K562 cells after 72 hrs by CellTiter-Glo assay; conditions: K562, 72 h
[13] = target: T1, CREB-binding protein/Histone acetyltransferase p300 (Homo sapiens) (UniProt Q09472+Q92793); assay: Inhibition of P300/CBP acetyl transferase activity in human MV4-11 cells assessed as reduction in acetylated H3K18 levels after 24 hrs in presence of SAHA by Western blot analysis; type: cell-based
[14] = target: T1, CREB-binding protein/Histone acetyltransferase p300 (Homo sapiens); assay: Inhibition of P300/CBP acetyl transferase activity in human Kasumi-1 cells assessed as reduction in acetylated H3K18 levels after 24 hrs in presence of SAHA by Western blot analysis; type: cell-based
[15] = test system: MV4-11; assay: Cell cycle arrest in human MV4-11 cells assessed as accumulation at G1 phase up to 20 uM after 24 hrs by propidium iodide/RNase staining-based flow cytometric analysis; type: functional
[16] = test system: MV4-11; assay: Induction of apoptosis in human MV4-11 cells up to 20 uM after 48 hrs by Annexin V-FITC/propidium iodide staining-based flow cytometric analysis; type: functional, cell-based
[17] = test system: MV4-11; assay: Induction of apoptosis in human MV4-11 cells assessed as apoptotic cells at 6.7 uM after 48 hrs by Annexin V-FITC/propidium iodide staining-based flow cytometric analysis; type: functional
[18] = test system: MV4-11; assay: Induction of apoptosis in human MV4-11 cells assessed as increase in cleaved PARP levels after 24 hrs by Western blot analysis; type: functional, cell-based
[19] = test system: MV4-11; assay: Induction of apoptosis in human MV4-11 cells assessed as increase in cleaved caspase9 levels after 24 hrs by Western blot analysis; type: functional, cell-based
[20] = test system: MV4-11; assay: Induction of apoptosis in human MV4-11 cells assessed as increase in cleaved caspase3 levels after 24 hrs by Western blot analysis; type: functional, cell-based
[21] = target: T1, CREB-binding protein/Histone acetyltransferase p300 (Homo sapiens); assay: Inhibition of P300/CBP in human MV4-11 cells assessed as downregulation of MYC RNA expression at 20 uM after 12 hrs by RNA-seq analysis; type: cell-based
[22] = target: T1, CREB-binding protein/Histone acetyltransferase p300 (Homo sapiens); assay: Inhibition of P300/CBP in human MV4-11 cells assessed as downregulation of CCNB1 RNA expression at 20 uM after 12 hrs by RNA-seq analysis; type: cell-based
[23] = target: T1, CREB-binding protein/Histone acetyltransferase p300 (Homo sapiens); assay: Inhibition of P300/CBP in human MV4-11 cells assessed as downregulation of CCNA2 RNA expression at 20 uM after 12 hrs by RNA-seq analysis; type: cell-based
[24] = target: T1, CREB-binding protein/Histone acetyltransferase p300 (Homo sapiens); assay: Inhibition of P300/CBP in human MV4-11 cells assessed as downregulation of HIF1A RNA expression at 20 uM after 12 hrs by RNA-seq analysis; type: cell-based
[25] = target: T1, CREB-binding protein/Histone acetyltransferase p300 (Homo sapiens); assay: Inhibition of P300/CBP in human MV4-11 cells assessed as downregulation of RRM2B RNA expression at 20 uM after 12 hrs by RNA-seq analysis; type: cell-based
[26] = target: T1, CREB-binding protein/Histone acetyltransferase p300 (Homo sapiens); assay: Inhibition of P300/CBP in human MV4-11 cells assessed as upregulation of GADD45B RNA expression at 20 uM after 12 hrs by RNA-seq analysis; type: cell-based
[27] = target: T1, CREB-binding protein/Histone acetyltransferase p300 (Homo sapiens); assay: Inhibition of P300/CBP in human MV4-11 cells assessed as upregulation of BAX RNA expression at 20 uM after 12 hrs by RNA-seq analysis; type: cell-based
[28] = target: T1, CREB-binding protein/Histone acetyltransferase p300 (Homo sapiens); assay: Inhibition of P300/CBP in human MV4-11 cells assessed as upregulation of SESN2 RNA expression at 20 uM after 12 hrs by RNA-seq analysis; type: cell-based
[29] = test system: MV4-11; assay: Antitumor activity against human MV4-11 cells xenografted in ip dosed nude mouse assessed as reduction in tumor growth rate administered every 2 days for 20 days; type: functional, organism-based
[30] = test system: MV4-11; assay: Antitumor activity against human MV4-11 cells xenografted in nude mouse assessed as reduction in tumor cell proliferation at 25 to 50 mg/kg, ip administered every 2 days for 20 days by KI-67-staining based microscopic analysis; type: functional, organism-based
[31] = test system: MV4-11; assay: Antitumor activity against human MV4-11 cells xenografted in ip dosed nude mouse assessed as increase in apoptotic cells administered every 2 days for 20 days by TUNEL assay; type: functional, organism-based
[32] = target: T1, CREB-binding protein/Histone acetyltransferase p300 (Homo sapiens); assay: Inhibition of P300/CBP in human MV4-11 cells assessed as change in UHRF1 mRNA expression at 20 uM after 12 hrs by RNA-seq analysis; type: cell-based
[33] = target: T1, CREB-binding protein/Histone acetyltransferase p300 (Homo sapiens); assay: Inhibition of P300/CBP in human MV4-11 cells assessed as change in DEPDC1 mRNA expression at 20 uM after 12 hrs by RNA-seq analysis; type: cell-based
[34] = target: T1, CREB-binding protein/Histone acetyltransferase p300 (Homo sapiens); assay: Inhibition of P300/CBP in human MV4-11 cells assessed as downregulation of MYC RNA expression at 20 uM after 12 hrs by RT-PCR analysis; type: cell-based
[35] = target: T1, CREB-binding protein/Histone acetyltransferase p300 (Homo sapiens); assay: Inhibition of P300/CBP in human MV4-11 cells assessed as downregulation of CCNB1 RNA expression at 20 uM after 12 hrs by RT-PCR analysis; type: cell-based
[36] = target: T1, CREB-binding protein/Histone acetyltransferase p300 (Homo sapiens); assay: Inhibition of P300/CBP in human MV4-11 cells assessed as downregulation of CCNA2 RNA expression at 20 uM after 12 hrs by RT-PCR analysis; type: cell-based
[37] = target: T1, CREB-binding protein/Histone acetyltransferase p300 (Homo sapiens); assay: Inhibition of P300/CBP in human MV4-11 cells assessed as downregulation of HIF1A RNA expression at 20 uM after 12 hrs by RT-PCR analysis; type: cell-based
[38] = target: T1, CREB-binding protein/Histone acetyltransferase p300 (Homo sapiens); assay: Inhibition of P300/CBP in human MV4-11 cells assessed as downregulation of RRM2B RNA expression at 20 uM after 12 hrs by RT-PCR analysis; type: cell-based
[39] = target: T1, CREB-binding protein/Histone acetyltransferase p300 (Homo sapiens); assay: Inhibition of P300/CBP in human MV4-11 cells assessed as upregulation of GADD45B RNA expression at 20 uM after 12 hrs by RT-PCR analysis; type: cell-based
[40] = target: T1, CREB-binding protein/Histone acetyltransferase p300 (Homo sapiens); assay: Inhibition of P300/CBP in human MV4-11 cells assessed as upregulation of BAX RNA expression at 20 uM after 12 hrs by RT-PCR analysis; type: cell-based
[41] = target: T1, CREB-binding protein/Histone acetyltransferase p300 (Homo sapiens); assay: Inhibition of P300/CBP in human MV4-11 cells assessed as upregulation of SESN2 RNA expression at 20 uM after 12 hrs by RT-PCR analysis; type: cell-based
[42] = target: Histone acetyltransferase KAT5 (Homo sapiens, UniProt Q92993); assay: Inhibition of Tip60 (unknown origin)
[43] = target: T1, CREB-binding protein/Histone acetyltransferase p300 (Homo sapiens); assay: Inhibition of P300/CBP acetyl transferase activity in human MV4-11 cells assessed as reduction in acetylated H3K18 levels at 2.2 to 60 uM after 24 hrs in presence of SAHA by Western blot analysis; type: cell-based
[44] = target: T1, CREB-binding protein/Histone acetyltransferase p300 (Homo sapiens); assay: Inhibition of P300/CBP acetyl transferase activity in human Kasumi-1 cells assessed as reduction in acetylated H3K18 levels at 2.2 to 60 uM after 24 hrs in presence of SAHA by Western blot analysis; type: cell-based

Sequence of Histone acetyltransferase p300 (Q09472 whole entry): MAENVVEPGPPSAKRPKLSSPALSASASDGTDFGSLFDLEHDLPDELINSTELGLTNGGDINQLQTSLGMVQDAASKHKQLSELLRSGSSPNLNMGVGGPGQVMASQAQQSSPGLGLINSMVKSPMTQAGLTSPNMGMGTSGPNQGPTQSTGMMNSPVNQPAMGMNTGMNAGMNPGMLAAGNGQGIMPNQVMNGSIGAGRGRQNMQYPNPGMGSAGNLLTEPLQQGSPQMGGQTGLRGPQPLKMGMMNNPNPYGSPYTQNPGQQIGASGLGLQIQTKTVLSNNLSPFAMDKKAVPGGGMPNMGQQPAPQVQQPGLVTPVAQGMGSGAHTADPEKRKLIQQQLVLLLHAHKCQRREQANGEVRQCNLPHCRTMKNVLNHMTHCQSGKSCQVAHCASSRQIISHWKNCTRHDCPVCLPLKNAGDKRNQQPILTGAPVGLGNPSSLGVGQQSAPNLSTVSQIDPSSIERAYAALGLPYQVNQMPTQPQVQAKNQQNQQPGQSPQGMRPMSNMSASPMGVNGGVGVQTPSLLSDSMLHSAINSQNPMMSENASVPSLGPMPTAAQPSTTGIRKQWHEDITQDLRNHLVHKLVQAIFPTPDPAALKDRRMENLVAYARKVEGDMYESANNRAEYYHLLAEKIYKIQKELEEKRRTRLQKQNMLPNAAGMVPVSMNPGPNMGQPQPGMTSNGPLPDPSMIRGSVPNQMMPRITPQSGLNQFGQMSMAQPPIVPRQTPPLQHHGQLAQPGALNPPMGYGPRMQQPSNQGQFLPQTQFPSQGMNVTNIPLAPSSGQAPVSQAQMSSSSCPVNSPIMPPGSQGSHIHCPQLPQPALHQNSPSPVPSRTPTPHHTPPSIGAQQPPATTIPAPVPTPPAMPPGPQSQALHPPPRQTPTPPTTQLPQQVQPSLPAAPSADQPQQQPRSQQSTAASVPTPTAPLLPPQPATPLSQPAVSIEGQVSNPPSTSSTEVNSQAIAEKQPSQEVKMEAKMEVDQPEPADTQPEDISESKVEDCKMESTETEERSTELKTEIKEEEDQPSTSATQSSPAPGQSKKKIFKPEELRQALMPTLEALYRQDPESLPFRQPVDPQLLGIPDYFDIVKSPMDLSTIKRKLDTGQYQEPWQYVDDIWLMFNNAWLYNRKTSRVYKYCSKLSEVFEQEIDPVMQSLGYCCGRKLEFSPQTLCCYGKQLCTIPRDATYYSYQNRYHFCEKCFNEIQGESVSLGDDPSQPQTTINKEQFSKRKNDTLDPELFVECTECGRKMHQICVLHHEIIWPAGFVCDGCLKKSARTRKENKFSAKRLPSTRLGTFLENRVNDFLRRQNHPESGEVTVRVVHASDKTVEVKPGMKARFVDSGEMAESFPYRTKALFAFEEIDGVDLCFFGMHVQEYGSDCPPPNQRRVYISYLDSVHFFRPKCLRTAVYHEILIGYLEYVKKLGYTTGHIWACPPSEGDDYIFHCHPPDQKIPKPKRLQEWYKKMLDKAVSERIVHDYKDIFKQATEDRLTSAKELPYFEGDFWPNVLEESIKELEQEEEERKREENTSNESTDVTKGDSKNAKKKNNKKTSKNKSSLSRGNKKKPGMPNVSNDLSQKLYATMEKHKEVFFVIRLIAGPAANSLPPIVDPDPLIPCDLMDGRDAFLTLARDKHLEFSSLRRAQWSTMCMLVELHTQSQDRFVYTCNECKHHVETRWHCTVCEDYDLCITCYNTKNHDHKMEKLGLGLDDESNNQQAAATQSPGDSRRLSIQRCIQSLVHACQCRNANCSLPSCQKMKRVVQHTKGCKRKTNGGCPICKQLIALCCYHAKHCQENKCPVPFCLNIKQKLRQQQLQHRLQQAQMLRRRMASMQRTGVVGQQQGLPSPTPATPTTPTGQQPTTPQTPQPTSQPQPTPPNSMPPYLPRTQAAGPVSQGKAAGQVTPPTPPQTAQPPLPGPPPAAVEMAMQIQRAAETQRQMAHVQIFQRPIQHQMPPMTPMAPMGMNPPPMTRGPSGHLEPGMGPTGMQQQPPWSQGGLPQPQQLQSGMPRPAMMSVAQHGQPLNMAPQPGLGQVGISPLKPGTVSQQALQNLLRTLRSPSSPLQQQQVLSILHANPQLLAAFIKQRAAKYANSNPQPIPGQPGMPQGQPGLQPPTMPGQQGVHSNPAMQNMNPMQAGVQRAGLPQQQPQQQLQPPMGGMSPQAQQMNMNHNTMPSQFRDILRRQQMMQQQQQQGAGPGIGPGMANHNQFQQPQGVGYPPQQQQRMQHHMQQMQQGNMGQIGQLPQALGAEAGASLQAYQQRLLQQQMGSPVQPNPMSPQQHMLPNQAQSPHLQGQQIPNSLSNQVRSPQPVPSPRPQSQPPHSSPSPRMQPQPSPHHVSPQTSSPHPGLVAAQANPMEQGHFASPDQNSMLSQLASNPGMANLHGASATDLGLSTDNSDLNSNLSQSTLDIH
T1 sequence (Q09472 whole entry, looked up): as the sequence (Q09472 whole entry) above
T1 sequence (Q92793 whole entry, looked up): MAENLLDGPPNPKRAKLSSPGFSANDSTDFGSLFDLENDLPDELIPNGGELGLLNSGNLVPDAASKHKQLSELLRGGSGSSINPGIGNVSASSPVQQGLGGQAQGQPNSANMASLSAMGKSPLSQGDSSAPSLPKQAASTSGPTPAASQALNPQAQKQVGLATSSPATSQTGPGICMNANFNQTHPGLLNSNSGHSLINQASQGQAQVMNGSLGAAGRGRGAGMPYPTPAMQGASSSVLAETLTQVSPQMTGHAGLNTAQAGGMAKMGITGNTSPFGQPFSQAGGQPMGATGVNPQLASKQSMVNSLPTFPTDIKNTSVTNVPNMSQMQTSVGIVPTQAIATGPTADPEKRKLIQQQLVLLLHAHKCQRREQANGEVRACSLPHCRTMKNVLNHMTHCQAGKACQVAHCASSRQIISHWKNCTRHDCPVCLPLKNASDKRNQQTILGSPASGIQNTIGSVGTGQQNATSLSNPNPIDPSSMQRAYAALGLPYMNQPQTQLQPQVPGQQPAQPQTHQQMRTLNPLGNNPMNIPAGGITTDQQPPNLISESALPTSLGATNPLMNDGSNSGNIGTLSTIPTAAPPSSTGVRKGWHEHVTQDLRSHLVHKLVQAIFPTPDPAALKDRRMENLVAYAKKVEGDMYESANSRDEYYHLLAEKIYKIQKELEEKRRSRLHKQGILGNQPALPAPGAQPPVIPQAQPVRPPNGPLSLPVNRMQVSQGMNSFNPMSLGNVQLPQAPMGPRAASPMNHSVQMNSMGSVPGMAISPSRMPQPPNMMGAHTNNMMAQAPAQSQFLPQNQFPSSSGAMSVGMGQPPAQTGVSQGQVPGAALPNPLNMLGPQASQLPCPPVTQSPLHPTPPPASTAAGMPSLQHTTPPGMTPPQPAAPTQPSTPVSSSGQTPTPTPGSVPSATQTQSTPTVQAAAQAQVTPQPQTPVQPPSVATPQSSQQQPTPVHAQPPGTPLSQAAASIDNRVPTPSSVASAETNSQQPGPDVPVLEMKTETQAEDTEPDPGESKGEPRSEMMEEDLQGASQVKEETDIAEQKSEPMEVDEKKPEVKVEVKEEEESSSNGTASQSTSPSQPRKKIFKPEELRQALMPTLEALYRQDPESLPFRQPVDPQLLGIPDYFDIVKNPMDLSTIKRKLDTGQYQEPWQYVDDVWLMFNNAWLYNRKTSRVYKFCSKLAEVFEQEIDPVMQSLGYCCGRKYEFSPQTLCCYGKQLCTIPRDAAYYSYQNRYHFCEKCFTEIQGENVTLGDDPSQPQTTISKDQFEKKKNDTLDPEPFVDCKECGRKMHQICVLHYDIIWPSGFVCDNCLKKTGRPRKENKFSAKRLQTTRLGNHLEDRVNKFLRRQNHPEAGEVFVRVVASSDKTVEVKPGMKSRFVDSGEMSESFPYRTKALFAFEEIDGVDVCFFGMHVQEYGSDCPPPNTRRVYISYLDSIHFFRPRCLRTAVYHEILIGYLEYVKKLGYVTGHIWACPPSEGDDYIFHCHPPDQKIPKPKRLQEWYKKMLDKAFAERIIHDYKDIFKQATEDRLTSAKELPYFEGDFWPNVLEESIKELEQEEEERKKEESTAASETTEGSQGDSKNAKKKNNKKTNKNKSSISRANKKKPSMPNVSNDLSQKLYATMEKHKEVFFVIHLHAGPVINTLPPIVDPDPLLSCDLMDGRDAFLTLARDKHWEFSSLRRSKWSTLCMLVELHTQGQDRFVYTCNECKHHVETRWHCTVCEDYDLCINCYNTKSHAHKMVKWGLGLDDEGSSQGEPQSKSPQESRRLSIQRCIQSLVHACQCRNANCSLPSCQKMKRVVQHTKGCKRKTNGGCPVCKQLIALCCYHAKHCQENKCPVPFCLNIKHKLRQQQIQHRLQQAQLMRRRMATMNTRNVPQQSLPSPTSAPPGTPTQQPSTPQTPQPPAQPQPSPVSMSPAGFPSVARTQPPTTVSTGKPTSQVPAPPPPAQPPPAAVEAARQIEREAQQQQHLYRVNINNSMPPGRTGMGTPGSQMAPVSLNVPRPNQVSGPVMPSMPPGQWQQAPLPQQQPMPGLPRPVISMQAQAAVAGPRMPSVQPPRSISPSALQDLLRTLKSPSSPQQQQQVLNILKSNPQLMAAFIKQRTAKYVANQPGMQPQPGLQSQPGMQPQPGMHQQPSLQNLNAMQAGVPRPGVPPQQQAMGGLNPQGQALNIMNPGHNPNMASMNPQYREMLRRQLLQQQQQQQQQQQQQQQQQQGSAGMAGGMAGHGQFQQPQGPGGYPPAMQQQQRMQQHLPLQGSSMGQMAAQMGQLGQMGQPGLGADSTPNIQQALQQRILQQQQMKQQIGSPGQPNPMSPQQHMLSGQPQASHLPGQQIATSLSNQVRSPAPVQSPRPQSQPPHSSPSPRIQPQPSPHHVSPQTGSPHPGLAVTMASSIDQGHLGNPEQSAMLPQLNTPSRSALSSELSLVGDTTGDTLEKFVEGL
Sequence of CREB-binding protein (Q92793 whole entry): as the sequence (Q92793 whole entry, looked up) above

SMILES: Cc1ccc(N2C(=O)/C(=C\C=C\c3ccco3)C(=O)NC2=S)cc1Cl
- IC50 [1]: 0.7 µM
- IC50 [2]: 3.2 µM
- IC50 [3]: 3.8 µM
- IC50 [4]: 2.7 µM
- IC50 [5]: 2.2 µM
- IC50 [6]: 3.5 µM
- IC50 [7]: 1.9 µM
- IC50 [8]: 1.1 µM
- IC50 [9]: 3 µM
- IC50 [10]: 4.7 µM
- IC50 [11]: 5.9 µM
- IC50 [12]: 3.1 µM
- inhibition [13]: Dose-dependent effect
- inhibition [14]: Dose-dependent effect
- Activity [15]: Dose-dependent effect
- Activity [16]: Dose-dependent effect
- Activity [17]: >=60%
- Activity [18]: Dose-dependent effect
- Activity [19]: Dose-dependent effect
- Activity [20]: Dose-dependent effect
- inhibition [21]: Active
- inhibition [22]: Active
- inhibition [23]: Active
- inhibition [24]: Active
- inhibition [25]: Active
- inhibition [26]: Active
- inhibition [27]: Active
- inhibition [28]: Active
- TGI [29]: Dose-dependent effect
- Activity [30]: Active
- Activity [31]: Dose-dependent effect
- inhibition [32]: Active
- inhibition [33]: Active
- inhibition [34]: Active
- inhibition [35]: Active
- inhibition [36]: Active
- inhibition [37]: Active
- inhibition [38]: Active
- inhibition [39]: Active
- inhibition [40]: Active
- inhibition [41]: Active

SMILES: CN1C(=O)/C(=C/c2c[nH]c3ccccc23)C(=O)NC1=S
- IC50 [1]: > 50 µM

SMILES: Cc1cc(/C=C2\C(=O)NC(=S)N(C)C2=O)c(C)n1C
- IC50 [1]: 14 µM

SMILES: CCCCCCCCCCCCCCCc1cccc(O)c1C(=O)O [ANACARDIC ACID]
- IC50 [42]: 64 µM

SMILES: CN1C(=O)/C(=C/c2ccncc2)C(=O)NC1=S
- IC50 [1]: > 50 µM

SMILES: CN1C(=O)/C(=C/c2ccc(N3CCOCC3)o2)C(=O)NC1=S
- IC50 [1]: > 50 µM

SMILES: CN1C(=O)/C(=C/c2ccccc2)C(=O)NC1=S
- IC50 [1]: 45 µM
- IC50 [8]: > 100 µM
- inhibition [43]: inactive
- inhibition [44]: inactive
